Paper PMC6072100, “Exploring the links between peptoid antibacterial activity and toxicity” (MedChemComm, 2017)
Like-named read-outs stand apart in the source and are kept apart here. Square brackets hold non-standard residues; d marks the D form. Peptide text beside a SMILES is read from it. Nspe = C[C@H](NCC(=O)O)c1ccccc1; NhArg = N=C(N)NCCCCNCC(=O)O

Experiments:
HaCaT cells = assay: Skin cell toxicity assay with HaCaT (alamarBlue); type: cell-based, human
Method in brief: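 HaCaT cells seeded at 2x10^4 per well 24 hours before 1-hour exposure to a 2–100 µM triplicate dilution series in DMEM high glucose with 10% FBS at 37 °C, 5% CO2. Viability assessed with alamarBlue; ED50 defined as dose killing 50% of cells, derived from dose-response data.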

HepG2 cells = assay: Cytotoxicity assay with HepG2 (alamarBlue); type: cell-based, human
Method in brief: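 HepG2 cells (2 × 10^4/well, seeded 1 day earlier) were exposed to compounds (2–100 μM dilution series, triplicate) for 1 h in reduced volume, then diluted with medium and incubated 24 h at 37 °C. Viability was read by alamarBlue after 2 h (Ex 560/Em 600 nm), and ED50 (dose killing 50% of cells) came from dose-response curves.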

Compound | toxicity to HaCaT or HepG2 (in words) (HaCaT cells) | ED50 HaCaT (HaCaT cells; human, HaCaT cells (keratinocytes), 24 h) [µM] | ED50 HepG2 (HepG2 cells) [µM] | ED50 HaCaT (HaCaT cells) [µM]
C[C@@H](c1ccccc1)N(CC(N)=O)C(=O)CN(C(=O)CN(CCCCN)C(=O)CN(Cc1ccc(F)cc1)C(=O)CN(Cc1ccc(F)cc1)C(=O)CN(CCCCN)C(=O)CN(C(=O)CN(C(=O)CN(CCCCN)C(=O)CN(Cc1ccc(F)cc1)C(=O)CN(Cc1ccc(F)cc1)C(=O)CNCCCCN)[C@@H](C)c1ccccc1)[C@@H](C)c1ccccc1)[C@@H](C)c1ccccc1 [Peptoid 28, [(NLysNpfbNpfb)(NLysNspeNspe)]2] | negligible toxicity | >100 | 55 | –
CCCCCNCC(=O)N(CC(=O)N(CC(=O)N(CCCCC)CC(=O)N(CC(=O)N(CC(=O)N(CCCCN)CC(=O)N(CC(=O)N(CC(=O)N(CCCCN)CC(=O)N(CC(=O)N(CC(N)=O)[C@@H](C)c1ccccc1)[C@@H](C)c1ccccc1)[C@@H](C)c1ccccc1)[C@@H](C)c1ccccc1)[C@@H](C)c1ccccc1)[C@@H](C)c1ccccc1)[C@@H](C)c1ccccc1)[C@@H](C)c1ccccc1 [Peptoid 31, (NamyNspeNspe)2(NLysNspeNspe)2] | – | – | 18 | 20
C[C@@H](c1ccccc1)N(CC(N)=O)C(=O)CN(C(=O)CN(CCCCNC(=N)N)C(=O)CN(C(=O)CN(C(=O)CN(CCCCNC(=N)N)C(=O)CN(C(=O)CN(C(=O)CN(CCCCNC(=N)N)C(=O)CN(C(=O)CN(C(=O)CNCCCCNC(=N)N)[C@@H](C)c1ccccc1)[C@@H](C)c1ccccc1)[C@@H](C)c1ccccc1)[C@@H](C)c1ccccc1)[C@@H](C)c1ccccc1)[C@@H](C)c1ccccc1)[C@@H](C)c1ccccc1 [Peptoid 34, (NhArgNspeNspe)4] (H-[NhArg][Nspe][Nspe][NhArg][Nspe][Nspe][NhArg][Nspe][Nspe][NhArg][Nspe][Nspe]-NH2) | – | – | 12 | 20
(NhArgNmfbNmfb)4 [Peptoid 36] | – | – | 21 | 28
